Data taken from patent US6699682B2, “Assay for inhibitors of fatty-acid amide hydrolase” (The Scripps Research Institute, priority 1995, dated 2004).
Read-outs that look alike come from different tables or passages of the source. Values belong to the molecule of their own block, whether it stands above or below them. Where a SMILES comes first, the peptide text is derived from it. [ ]: non-standard residue; d: D form. The star is where a group is joined. Sta = CC(C)C[C@H](N)[C@@H](O)CC(=O)O; Isovaleryl = CC(C)CC(=O)*

Tests used:
recombinant rat FAAH = biological target: T1, recombinant rat FAAH (Rattus norvegicus, UniProt P97612); assay: oleamide hydrolase activity of rat FAAH-transfected COS-7 cell extract and its inhibition (TLC); assay type: biochemical; conditions: versus untransfected and control transfected cells
T1 construct: expressed in transfected cells; host or cells: COS-7 cells, transient, pcDNA3; dounce-homogenised cell extract
T1 sequence (P97612 1-579): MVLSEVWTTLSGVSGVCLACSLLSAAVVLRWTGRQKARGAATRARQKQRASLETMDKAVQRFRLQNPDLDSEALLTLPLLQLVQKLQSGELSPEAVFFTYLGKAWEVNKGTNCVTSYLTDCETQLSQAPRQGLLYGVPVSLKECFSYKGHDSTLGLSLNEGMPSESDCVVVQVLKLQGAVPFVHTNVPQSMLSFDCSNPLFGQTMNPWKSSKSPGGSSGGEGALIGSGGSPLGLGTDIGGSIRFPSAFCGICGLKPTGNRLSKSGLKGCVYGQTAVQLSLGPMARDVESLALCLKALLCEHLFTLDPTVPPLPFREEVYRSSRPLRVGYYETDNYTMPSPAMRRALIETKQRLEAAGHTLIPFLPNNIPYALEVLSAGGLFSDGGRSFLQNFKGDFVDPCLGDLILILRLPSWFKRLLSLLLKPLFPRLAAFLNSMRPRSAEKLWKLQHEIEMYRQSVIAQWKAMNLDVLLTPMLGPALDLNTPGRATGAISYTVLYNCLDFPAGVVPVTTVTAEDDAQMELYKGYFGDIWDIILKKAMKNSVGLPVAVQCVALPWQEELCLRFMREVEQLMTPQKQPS
Method: The following thin layer chromatography (TLC) protocol is used for assaying cis-9,10 octadecenoamide hydrolysis activity, also referred to as fatty-acid amide hydrolase activity. Oleamide is first labeled with ^14C. To accomplish this, ^14C-Oleic acid (1-10 μM, Moravek Biochemicals, 5-50 μCi/μM) in CH2CL2 (200 μL, 0.005-0.05 M) at 0° C. was treated with excess oxalyl chloride and the reaction mixture was warmed to 25° C. for 6 hours. The reaction mixture was then concentrated under a constant stream of gaseous nitrogen and the remaining residue was cooled to 0° C. and treated with excess saturated aqueous ammonium hydroxide. After 5 minutes, the reaction mixture was partitioned between Et)Ac (1.5 mL) and 10% HCl (1.0 mL). The organic layer was then washed with water (1.0 mL) and concentrated under a constant stream of gaseous nitrogen to provide ^14C-oleamide in quantitative yield as judged by TLC (60% EtOAc in hexanes; oleamide Rf−0.2; oleic acid Rf−0.8). […]
While untransfected COS-7 cells contained negligible amounts of oleamide hydrolase activity, COS-7 cells transfected with the rat FAAH cDNA expressed high levels of oleamide hydrolase activity (FIG. 15A). The assay was performed as described in Section B where by TLC the conversion of oleamide to oleic acid was assessed. […]

[1] = biological target: T2, recombinant expressed rat FAAH (Rattus norvegicus, UniProt P97612); assay: FAAH hydrolysis assays with 14C-labeled fatty acid amide substrates (TLC, scintillation counting); assay type: biochemical; conditions: for Rate of Hydrolysis: 35 μg transfected COS-7 cell protein, 5 minutes, 37° C.
T2 construct: expressed in transfected cells; host or cells: COS-7 cells, transient, pcDNA3; dounce-homogenised cell extract
T2 sequence (P97612 1-579): T1 sequence (P97612 1-579)
Method: Therefore, COS-7 cells transfected with the rat FAAH cDNA were assayed for anandamide hydrolase activity. To assess the enzymatic activity of the expressed recombinant fatty acid amide hydrolases of this invention on labeled anandamide, the following enzymatic assay was performed. ^14C-anandamide was synthesized as follows: 12.5 μCi (specific activity of 50 μCi/μM) of ^14C arachidonic acid (Moravek Biochemicals) was dissolved in 100 μl CH2Cl2, cooled to 0° C., and treated with excess oxalyl chloride. The reaction mixture was stirred at 25° C. for 6 hours, after which time the solvent was evaporated. The remaining residue was cooled to 0° C., treated with a large excess of ethanolamine, and stirred at 25° C. for 15 minutes. The reaction mixture was then partitioned between ethyl acetate and 2 M HCl, and the organic layer was washed with water and then evaporated to dryness. The resulting ^14C-anandamide was diluted with unlabeled anandamide to a final specific activity of 5 μCi/μM in ethanol. Approximately 1 μCi of ^14C-anandamide and 20 μl of dounce homogenized COS-7 cell extract were used for each anandamide hydrolase assay as detailed above for the oleamide hydrolase assays. Briefly, FAAH hydrolysis assays were conducted in triplicate with 100 μM substrate, 35 μg of rat transfected COS-7 cell protein for 5 minutes at 37° C. (except in the case of stearic amide, where due to low solubility, 20 μM substrate comparison to oleamide were conducted). Products were separated on TLC as described previously, scraped into scintillation fluid, and radioactivity was quantitated by scintillation counting. Substrate hydrolysis in the presence of equal amounts of untransfected COS-7 cell protein extract served as background control in all cases and was substracted from FAAH hydrolysis rates to give the data as presented below.
To further assess the substrate specificity spectrum of enyzmatic hydolytic activity of the recombinant expressed proteins of this invention, other ^14C-labeled fatty acid amides were synthesized as described in Section B6 and above for ^14C-oleamide, with the exception of anandamide as described.
Where indicated in the table the anandamide and oleamide hydrolysis rates are considered to be 100% of FAAH activity to which other fatty acid amide hydrolysis rates are compared.

rats = assay: effect on spontaneous behavior of rats after ip injection (induction of sleep); assay type: in vivo, rat; conditions: for sleep-inducing pharmacological effect compared with cis-9,10-octadecenoamide: rats, ip
Method: Synthetic cis-9,10-octadecenoamide was injected (ip) into rats in order to test its effect on spontaneous behavior at different doses: 1 (n=2), 2 (n=2), 5 (n=7), 10 (n=10), 20 (n=2), and 50 (n=2) mg, where n = number of rats tested. […] However, at a threshold of 5 mg and above there was a marked effect consisting of an induction of long-lasting motor quiescence associated with eyes closed, sedated behavior characteristic of normal sleep. Also as with normal sleep, the rats still responded to auditory stimuli with orienting reflex and sustained attention toward the source of stimulation. In addition, motor behavior was impaired. The latency to behavioral sedation following administration was about 4 minutes and subjects were normally active again after 1 hour (5 mg), 2 hour (10 mg), or 2.5 hour (20 mg and 50 mg).
We have compared cis-9,10-octadecenoamide to vehicle and the synthetic analogs listed in FIG. 1 to estimate the structural specificity of its sleep-inducing potential. […] More particularly, male Sprague-Dawley rats (300 g at the time of surgery) were implanted under halothane anesthesia (2-3%) with a standard set of electrodes for sleep recordings. This included two screw electrodes placed in the parietal bone over the hippocampus to record the subjects electroencephalogram (EEG) and two wire electrodes inserted in the neck musculature to record postural tone through electromyographic activity (EMG). Rats were housed individually with at libitum access to food and water. The dark-light cycle was controlled (12:12, lights on a 10:00 p.m.). One week after the surgery, rats were habituated to the recording conditions for at least three days. Upon the completion of the habituation period, rats received 2 milliliter (ip) of either: vehicle (5% ethanol/saline solution), cis-9,10-octadecenoamide (10 mg), or oleic acid (10 mg). […] Sleep recordings were visually scored and four stages were determined: wakefulness, slow-wave-sleep 1 (SWS1), slow-wave-sleep 2 (SWS2), and rapid eye movement (REM) sleep.

[2] = biological target: T3, FAAH activity of a rat brain membrane fraction (Rattus norvegicus, UniProt P97612); assay type: biochemical; conditions: for inhibition of cis-9,10-octadecenoamide hydrolysis (lipid amidase) activity: 1 mM
T3 construct: Cis-9,10-octadecenoamide with rat brain membrane fraction +1 mM phenylmethylsulfonyl fluoride (PMSF); from tissue; host or cells: rat brain membrane fraction
T3 sequence (P97612 1-579): T1 sequence (P97612 1-579)
Method: In each case the enzymic reaction is performed is a separate reaction vessel and the product is spotted onto a TLC plate.

[3] = system: amidase activity which catalyzes both the hydrolysis and synthesis of arachidonylethanolamide (anandamide); conditions: cited from earlier work
neuroblastoma cells = conditions: anandamide incubated with neuroblastoma cells; cited from earlier work

Molecule: CCCCC/C=C\C/C=C\C/C=C\C/C=C\CCCC(=O)NCCO [Anandamide, arachidonylethanolamide]
conversion of labeled substrate by rat FAAH-transfected COS-7 cells (qualitative, TLC) (recombinant rat FAAH): high levels of anandamide hydrolase activity
% of FAAH activity (anandamide hydrolysis rate = 100%) ([1]; 100 μM substrate): 100%
Rate of Hydrolysis ([1]; 100 μM substrate): 333 ± 30 nmol/min/mg

Molecule: CCCCCCCCC/C=C\CCCCCCC(N)=O [Compound 3, Cis-8,9-octadecenoamide]
sleep-inducing pharmacological effect compared with cis-9,10-octadecenoamide (rats): substantial reduction in both the degree and duration of the pharmacological effects

Molecule: CCCCCC/C=C\CCCCCCCCCC(N)=O [Compound 4, Cis-11,12-octadecenoamide]
sleep-inducing pharmacological effect compared with cis-9,10-octadecenoamide (rats): substantial reduction in both the degree and duration of the pharmacological effects

Molecule: CCCCCCCC/C=C\CCCCCCCCCCCC(N)=O [Compound 6, Erucamide]
sleep-inducing pharmacological effect compared with cis-9,10-octadecenoamide (rats): substantial reduction in both the degree and duration of the pharmacological effects

Molecule: [Cl][Hg][Cl] [HgCl2, mercuric chloride]
inhibition of lipid amidase activity ([2]; 50 mM): inhibited

% of FAAH activity (anandamide hydrolysis rate = 100%) ([1]; 100 μM substrate): 24.3%
Rate of Hydrolysis ([1]; 100 μM substrate): 81 ± 7 nmol/min/mg
Molecule: CCCCCCCCCCCCCC(N)=O [Myristic Amide, myristic amide]

Molecule: O=S(=O)(F)Cc1ccccc1 [PMSF, phenylmethylsulfonyl fluoride]
inhibition of the amidase activity ([3]; 1.5 mM concentration): completely inhibited
inhibition of cis-9,10-octadecenoamide hydrolysis (lipid amidase) activity [2]: inhibited
inhibition of cis-9,10-octadecenoamide hydrolysis (lipid amidase) activity ([2]; listed as phenylmethylsulfonyl fluoride): completely inhibited

% of FAAH activity (anandamide hydrolysis rate = 100%) ([1]; 100 μM substrate): 9.9%
Rate of Hydrolysis ([1]; 100 μM substrate): 33 ± 2 nmol/min/mg
Molecule: CCCCCCCCCCCCCCCC(N)=O [Palmitic Amide, palmitic amide]

% of FAAH activity (oleamide hydrolysis rate = 100%) ([1]; 20 μM substrate): 5.8%
Rate of Hydrolysis ([1]; 20 μM substrate): 2.3 ± 1 nmol/min/mg
Molecule: CCCCCCCCCCCCCCCCCC(N)=O [Stearic Amide, stearic amide]

Molecule: CCCCCCCC/C=C/CCCCCCCC(N)=O [Trans-9,10-octadecenoamide]
duration of the biological (sleep-inducing) effect (rats; 10 mg per rat): one hour
sleep-inducing pharmacological effect compared with cis-9,10-octadecenoamide (rats): much less potent

Molecule: N=C(N)c1ccccc1 [benzamidine]
effect of other inhibitors on the amidase activity [3]: little or no effect

Molecule: CC(C)C[C@H](NC(=O)[C@@H](NC(=O)N[C@@H](Cc1ccccc1)C(=O)O)[C@@H]1CCN=C(N)N1)C(=O)N[C@H](C=O)Cc1ccccc1 [chymostatin]
effect of other inhibitors on the amidase activity [3]: little or no effect

Molecule: CC(=O)N[C@@H](CC(C)C)C(=O)N[C@@H](CC(C)C)C(=O)N[C@H](C=O)CCCNC(=N)N [leupeptin]
effect of other inhibitors on the amidase activity [3]: little or no effect

Molecule: CCCCCCCC/C=C\CCCCCCCC(=O)O [oleic acid, Oleic Acid]
sleep-inducing pharmacological effect compared with cis-9,10-octadecenoamide (rats): nor oleic acid (5) showed any overt behavioral effect

Molecule: CC(C)CC(=O)N[C@H](C(=O)N[C@H](C(=O)N[C@@H](CC(C)C)[C@@H](O)CC(=O)N[C@@H](C)C(=O)N[C@@H](CC(C)C)[C@@H](O)CC(=O)O)C(C)C)C(C)C [pepstatin] (Isovaleryl-VV[Sta]A[Sta]-OH)
effect of other inhibitors on the amidase activity [3]: little or no effect

Molecule: aprotinin
effect of other inhibitors on the amidase activity [3]: little or no effect

Molecule: arachidonyl trifluoromethyl ketone
increase of anandamide levels in the presence of the inhibitor (neuroblastoma cells): 5 fold
